Patent US8143250B2, “6-7,dialkoxy quinazoline derivatives useful for treatment of cancer related disorders” (priority 2008, dated 2012)
Entries after “also recorded” stand apart in the source; their conditions may differ. Where a name gives a salt, the structure may show the parent alone. Read-outs that look alike come from different tables or passages of the source.

Assays:
[1] = system: A549 luciferase expressing cells; test: Nude mice implanted with A549 luciferase expressing cells, tumor observation; type: in vivo; settings: 42 days treatment, oral and ip routes
male and female mice = test: Acute toxicity (LD0, LD50) in mice; type: in vivo; settings: single oral dose; for LD50: Litchfield and Wilcoxon; for LD0: no mortality at end of 7 days
Description: The doses 500, 750, 1000 and 2000 mg/Kg were administered orally. Each group consists of 5 mice. […] The survived animals were autopsied for asserting the absorption of compound through g.i.t.
The LD50 was determined using Litchfield and Wilcoxon (J. Pharmacol. Exp. Ther. 1949, 96: 99-113).

VEGFR = test: Western blot of receptor levels in A549 cells: VEGFR; type: cell-based, human
Description: (§1) Levels of Erb-1, Erb-2, Erb-3, Erb-4 and VEGFR were determined by western blot analysis.

Erb B3 = test: Western blot of receptor levels in A549 cells: Erb B3; type: cell-based, human
Description: as §1

H1299 and A549 cells = test: Matrigel invasion assay (modified Boyden chamber); type: cell-based, human; settings: cells treated 48 hr, migration 24 h
Description: The in vitro invasiveness of H1299 and A549 cells in the presence of various concentrations of NRC compounds (as determined by MTT assay) was assessed using a modified Boyden chamber assay. Cells were treated with these compounds for 48 hr. 1×10^6 cells were suspended in 600 μl of serum-free medium supplemented with 0.2% BSA and placed in the upper compartment of the transwell chambers (Corning Costar Fisher Scientific cat #07-200-158, Pittsburgh Pa.) coated with matrigel (0.7 mg/ml). The lower compartment of the chamber was filled with 200 μl of serum medium and the cells were allowed to migrate for 24 h. after incubation, the cells were fixed and stained with Hema-3 and quantified as previously described (Mohanam et al. 1993). The migrated cells were quantified as percent invasion.

Erb B2 = test: Western blot of receptor levels in A549 cells: Erb B2; type: cell-based, human
Description: as §1

A549 cells [2] = test: In vivo evaluation on subcutaneous lung tumours in nude mice; settings: for tumour regression: subcutaneous A549 tumours
Description: Nude mice were implanted with 2×10^6 A549 cells in the right hind limb flank.

A549 cells [3] = test: Visualization of tumors in lung tissue (H&E sections); type: in vivo, nude mice; settings: intrapulmonary A549, 2.5 and 20 mg/Kg, oral/ip, thirty days daily treatment
Text: Nude mice were implanted by intrapulmonary injections of A549 cells. […] Thirty days after daily drug treatments, mice were sacrificed and lungs harvested. The lung tissues were fixed in 10% buffered formaldehyde, paraffin embedded and sectioned. The sections were H&E stained as per statutory protocols to visualize solid or diffuse tumors.

Erb B4 = test: Western blot of receptor levels in A549 cells: Erb B4; type: cell-based, human
Description: as §1

A549 cells [4] = test: Evaluation of ED50 from lung section and tumor regression studies; type: in vivo, nude mice; settings: oral route, based on lung section and tumor regression studies
Description: The ED50 values were evaluated based on the lung section and tumor regression studies. […].

[5] = system: A549 luciferase expressing cells; test: Evaluation of lung tissue harvested from nude mice after treatment; type: in vivo; settings: various concentrations, oral/ip routes
EGFR = molecular target: T1, EGFR (Homo sapiens, UniProt P00533); test: Western blot analysis of EGFR expression; type: cell-based; settings: for concentration causing comparable inhibition of EGFR expression: H1299 or A549 cells, 72 hr
T1 construct: endogenous in cells; host or cells: H1299 or A549 cells
Description: The gels were blotted onto treated nylon membranes (Biorad) and immunoprobed for EGFR, P13K and AKT.

A549 and H1299 cells = test: cells; settings: Homo sapiens, read-out: inhibiting concentration (IC50)
Description: Solubilization of the cells by the addition of a detergent results in the liberation of the crystals, which are solubilized. The number of surviving cells is directly proportional to the level of the formazan product created. The color can then be quantified using a simple colorimetric assay. This assay was done using 0-1000 ng/ml concentrations of Erlotinib and the test compounds in A549 and H1299 cells.

| SMILES | tumors at end of treatment [1] | LD50 (male and female mice) | LD0 (male and female mice) | VEGFR level (VEGFR) | Erb B3 level (Erb B3) | Erb B2 level (Erb B2) | Erb B4 level (Erb B4) | residual tumours in harvested lungs [5] | other results |
| --- | --- | --- | --- | --- | --- | --- | --- | --- | --- |
| C#Cc1cccc(Nc2ncnc3cc(OC)c(OCCCN4CCOCC4)cc23)c1 [NRC-2694, N-(3-ethylnylphenyl)-7-methoxy-6-[3-(4-morpholinyl)propoxy]-4-quinazolinamine] | No tumors were observed | could not be pinpointed | 2000 mg/kg (po) | down regulating | down regulating | down regulating | down regulating | Complete regression of tumours | VEGFR level (VEGFR; listed as NRC 2694): down regulated; Erb B3 level (Erb B3; listed as NRC 2694): down regulated; invasion (H1299 and A549 cells): significant decrease in invasion in a dose dependent manner; Erb B2 level (Erb B2; listed as NRC 2694): down regulated; tumour regression (A549 cells [2]; 10 mg/Kg dose): complete regression of tumours; superiority in efficacy versus erlotinib HCl (A549 cells [2]; 10 mg/Kg versus 100 mg/Kg): ten fold; tumors in lung tissue sections, comparison with erlotinib HCl (A549 cells [3]): fared much better; Erb B4 level (Erb B4; listed as NRC 2694): down regulated; ED50 (A549 cells [4]): 6.3 mg/kg; level of efficacy versus erlotinib HCl (EGFR expression) (EGFR; 80 ng versus 800 ng): ten fold; concentration causing comparable inhibition of EGFR expression (EGFR): 80 ng; concentration causing comparable inhibition of EGFR expression (EGFR; value in parentheses): 190 nm |
| C#Cc1cccc(Nc2ncnc3cc(OCCOC)c(OCCOC)cc23)c1 [Erlotinib HCl, N-(3-Ethylnylphenyl)-6,7-bis(2-methoxyethoxy)-4-quinazolinamine, reference compound] | residual tumors were still present | 805 mg/kg (po) | 500 mg/kg (po) | not seen at all; also recorded: no such indication was seen | not seen at all; also recorded: no such indication was seen | not seen at all; also recorded: no such indication was seen | not seen at all; also recorded: no such indication was seen | tumours were still present | tumour regression (A549 cells [2]; 100 mg/Kg dose): could not induce complete tumor regression; also recorded: tumours were still present; IC50 (A549 and H1299 cells): 0.836 µg/mL; ED50 (A549 cells [4]; Mus musculus, A549, read-out: ED50): 22 mg/kg |
